Results from ChEMBL document CHEMBL4732174, “Discovery of 6-(7-Nitro-2,1,3-benzoxadiazol-4-ylthio)hexanol Derivatives as Glutathione Transferase Inhibitors with Favorable Selectivity and Tolerated Toxicity” (J Med Chem, 2021).
Converted amounts (≈) assume the structure as drawn.

Experiments:
[1] = biological target: T1, Glutathione S-transferase P (Homo sapiens, UniProt P09211); conditions: dose 0.1-5 µM
Target sequence in this assay (P09211 2-210 limits assumed): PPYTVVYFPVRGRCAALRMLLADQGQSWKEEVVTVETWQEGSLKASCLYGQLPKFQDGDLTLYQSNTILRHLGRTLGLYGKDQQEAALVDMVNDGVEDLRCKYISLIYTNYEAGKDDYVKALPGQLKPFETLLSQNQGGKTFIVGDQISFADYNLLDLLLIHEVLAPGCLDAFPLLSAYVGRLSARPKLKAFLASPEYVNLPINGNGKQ

143B [2] = assay: Induction of cell cycle arrest in human 143B cells assessed as accumulation at G1 phase at 10 uM incubated for 48 hrs by propidium iodide staining based flow cytometry (reference value: 66.62 %); assay type: functional
[3] = Toxicity in BALB/c nude mouse xenografted with human 143B cells assessed as body weight loss at 20 mg/kg, po administered once daily for 28 consecutive days and measured every 3 days; assay type: organism-based; conditions: in vivo, 672 h, time 28 day
[4] = rat, in vivo, po, 80 mg/kg, 48 h
Description: Plasma clearance in Sprague-Dawley rat at 80 mg/kg, po administered as single dose measured upto 48 hrs by LC-MS/MS analysis

143B [5] = assay: Induction of cell cycle arrest in human 143B cells assessed as accumulation at G1 phase at 5 uM incubated for 48 hrs by propidium iodide staining based flow cytometry (reference value: 66.62 %); assay type: functional
in vivo = conditions: Sprague-Dawley, rat, po, 80 mg/kg
Description: Tmax in Sprague-Dawley rat at 80 mg/kg, po administered as single dose measured upto 48 hrs by LC-MS/MS analysis

[6] = Toxicity in BALB/c nude mouse xenografted with human 143B cells assessed as kidney edema at 5 to 20 mg/kg, po administered once daily for 28 consecutive days by hematoxylin-eosin staining based assay; assay type: organism-based; conditions: in vivo, 672 h, dose 5-20 mg/kg, time 28 day
[7] = biological target: T1, Glutathione S-transferase P; assay: Time dependent inhibition of GSTP1-1 (unknown origin) assessed as inhibition constant using reduced GSH and CDNB as substrate by spectrophotometric method
Target sequence in this assay (P09211 whole entry): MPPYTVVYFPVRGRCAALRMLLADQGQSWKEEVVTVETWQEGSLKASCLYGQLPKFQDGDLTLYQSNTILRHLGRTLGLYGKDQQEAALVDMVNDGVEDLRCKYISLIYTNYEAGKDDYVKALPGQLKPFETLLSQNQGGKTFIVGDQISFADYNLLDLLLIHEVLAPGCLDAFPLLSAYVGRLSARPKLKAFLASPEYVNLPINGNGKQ

[8] = Toxicity in BALB/c nude mouse xenografted with human 143B cells assessed as heart edema at 5 to 20 mg/kg, po administered once daily for 28 consecutive days by hematoxylin-eosin staining based assay; assay type: organism-based; conditions: in vivo, 672 h, dose 5-20 mg/kg, time 28 day
143B [9] = assay: Antitumor activity against human 143B cells xenografted in BALB/c nude mouse assessed as tumor growth inhibition at 5 mg/kg, po administered once daily for 28 consecutive days relative to control; assay type: functional; conditions: 672 h, time 28 day, read-out: TGI
liver carboxylesterase = biological target: T2, liver carboxylesterase (Sus scrofa, UniProt Q29550); assay: Stability of the compound assessed as pig liver carboxylesterase-mediated compound hydrolysis at 10 mM measured after 24 hrs by HPLC analysis; assay type: ADME; conditions: read-out: Drug degradation
T2 sequence (Q29550 whole entry): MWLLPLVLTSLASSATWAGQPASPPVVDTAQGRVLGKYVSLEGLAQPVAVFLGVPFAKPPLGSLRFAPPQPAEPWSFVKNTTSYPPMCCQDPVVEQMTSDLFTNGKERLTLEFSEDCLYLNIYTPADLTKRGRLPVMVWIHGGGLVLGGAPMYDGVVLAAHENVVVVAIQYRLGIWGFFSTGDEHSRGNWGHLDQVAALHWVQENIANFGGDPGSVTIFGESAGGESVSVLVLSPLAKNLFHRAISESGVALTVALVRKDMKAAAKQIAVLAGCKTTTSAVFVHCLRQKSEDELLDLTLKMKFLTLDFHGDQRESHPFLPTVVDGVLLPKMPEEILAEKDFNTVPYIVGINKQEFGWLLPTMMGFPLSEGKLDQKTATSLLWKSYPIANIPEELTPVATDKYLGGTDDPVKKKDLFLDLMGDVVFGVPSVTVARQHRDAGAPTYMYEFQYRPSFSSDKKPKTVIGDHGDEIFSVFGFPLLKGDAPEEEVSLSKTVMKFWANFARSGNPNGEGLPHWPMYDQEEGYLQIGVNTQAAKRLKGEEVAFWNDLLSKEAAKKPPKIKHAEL

143B [10] = assay: Induction of cell cycle arrest in human 143B cells assessed as accumulation at G2 phase at 5 uM incubated for 48 hrs by propidium iodide staining based flow cytometry (reference value: 1.35 %); assay type: functional
[11] = Toxicity in BALB/c nude mouse xenografted with human 143B cells assessed as body weight loss at 5 mg/kg, po administered once daily for 28 consecutive days and measured every 3 days; assay type: organism-based; conditions: in vivo, 672 h, time 28 day
[12] = Toxicity in BALB/c nude mouse xenografted with human 143B cells assessed as necrosis in lung at 5 to 20 mg/kg, po administered once daily for 28 consecutive days by hematoxylin-eosin staining based assay; assay type: organism-based; conditions: in vivo, 672 h, dose 5-20 mg/kg, time 28 day
[13] = Toxicity in BALB/c nude mouse xenografted with human 143B cells assessed as cellular inflammation in heart at 5 to 20 mg/kg, po administered once daily for 28 consecutive days by hematoxylin-eosin staining based assay; assay type: organism-based; conditions: in vivo, 672 h, dose 5-20 mg/kg, time 28 day
143B [14] = assay: Antitumor activity against human 143B cells xenografted in BALB/c nude mouse assessed as tumor growth inhibition at 20 mg/kg, po administered once daily for 28 consecutive days relative to control; assay type: functional; conditions: 672 h, time 28 day, read-out: TGI
[15] = Volume of distribution in Sprague-Dawley rat at 80 mg/kg, po administered as single dose measured upto 48 hrs by LC-MS/MS analysis; conditions: in vivo
143B [16] = assay: Induction of cell cycle arrest in human 143B cells assessed as accumulation at G1 phase at 2.5 uM incubated for 48 hrs by propidium iodide staining based flow cytometry (reference value: 66.62 %); assay type: functional
[17] = biological target: T3, Glutathione S-transferase Mu 2 (Homo sapiens, UniProt P28161); assay: Inhibition of GSTM2-2 (unknown origin) using reduced GSH and CDNB as substrate incubated for 10 mins followed by substrate addition by microplate reader analysis
T3 sequence (P28161 whole entry): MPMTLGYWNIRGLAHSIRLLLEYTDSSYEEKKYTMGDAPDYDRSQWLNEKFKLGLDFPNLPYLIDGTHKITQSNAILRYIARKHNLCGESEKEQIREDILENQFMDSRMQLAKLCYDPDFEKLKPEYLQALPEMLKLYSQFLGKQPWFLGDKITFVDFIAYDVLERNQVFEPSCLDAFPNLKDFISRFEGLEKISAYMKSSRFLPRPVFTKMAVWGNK

[18] = Toxicity in BALB/c nude mouse xenografted with human 143B cells assessed as cellular inflammation in kidney at 5 to 20 mg/kg, po administered once daily for 28 consecutive days by hematoxylin-eosin staining based assay; assay type: organism-based; conditions: in vivo, 672 h, dose 5-20 mg/kg, time 28 day
[19] = Water solubility of the compound measured by UV-Visible spectral analysis; assay type: physicochemical; conditions: water; read-out: solubility
L02 = assay: Cytotoxicity against human L02 cells assessed as reduction in cell viability incubated for 72 hrs by MTT assay; assay type: cell-based; conditions: L02, 72 h
[20] = Toxicity in BALB/c nude mouse xenografted with human 143B cells assessed as spleen edema at 5 to 20 mg/kg, po administered once daily for 28 consecutive days by hematoxylin-eosin staining based assay; assay type: organism-based; conditions: in vivo, 672 h, dose 5-20 mg/kg, time 28 day

In the case of `CN(C)CCCNC(=O)CCC(=O)OCCCCCCSc1ccc([N+](=O)[O-])c2nonc12`, the Kinact [1] is reported as 0.17 min⁻¹, the Activity (143B [2]) is reported as 48.67% and the Activity [3] is reported as “Non-Toxic”. For the same molecule, the CL [4] was 64.2 mL/min/kg, the Activity (143B [5]) was 49.82% and the Tmax at 48 h (in vivo) was 2.33 h. The Activity [6] was “Non-Toxic”, the Ki [7] was 170 nM and the Activity [8] was “Non-Toxic”. For the same molecule, the inhibition in vivo at 5 mg/kg (143B [9]) was 46.4%, the metabolised at 24 h, 10000 µM (liver carboxylesterase) was 45% and the Activity (143B [10]) was 15.24%. The Activity [11] was “Non-Toxic”, the Activity [12] was “Non-Toxic” and the Activity [13] was “Non-Toxic”. The inhibition in vivo at 20 mg/kg (143B [14]) was 74.5%, the Vd [15] was 7.62 L/kg and the Activity (143B [16]) was 49.79%. The IC50 [17] was 90 nM, the Activity [18] was “Non-Toxic” and the solubility [19] was 9000 µg/mL (≈ 18.7 mM). For the same molecule, the IC50 (L02) was 4230 nM and the Activity [20] was “Non-Toxic”.
